Where a name gives a salt, the structure may show the parent alone. Read-outs that look alike come from different tables or passages of the source.
How the values were obtained:
lysosomal GCase = molecular target: T1, lysosomal GCase (Homo sapiens, UniProt P04062); assay: In situ lysosomal GCase inhibition and washout in fibroblasts from a normal subject (PFBFDβGlu substrate); format: cell-based; settings: for in situ washout: after 16-24 hours at IC90, single exponential fit of activity recovery over 8 hours
T1 construct: fibroblasts established from a normal subject; endogenous in cells; host or cells: fibroblasts established from a normal subject
T1 sequence (P04062 40-536): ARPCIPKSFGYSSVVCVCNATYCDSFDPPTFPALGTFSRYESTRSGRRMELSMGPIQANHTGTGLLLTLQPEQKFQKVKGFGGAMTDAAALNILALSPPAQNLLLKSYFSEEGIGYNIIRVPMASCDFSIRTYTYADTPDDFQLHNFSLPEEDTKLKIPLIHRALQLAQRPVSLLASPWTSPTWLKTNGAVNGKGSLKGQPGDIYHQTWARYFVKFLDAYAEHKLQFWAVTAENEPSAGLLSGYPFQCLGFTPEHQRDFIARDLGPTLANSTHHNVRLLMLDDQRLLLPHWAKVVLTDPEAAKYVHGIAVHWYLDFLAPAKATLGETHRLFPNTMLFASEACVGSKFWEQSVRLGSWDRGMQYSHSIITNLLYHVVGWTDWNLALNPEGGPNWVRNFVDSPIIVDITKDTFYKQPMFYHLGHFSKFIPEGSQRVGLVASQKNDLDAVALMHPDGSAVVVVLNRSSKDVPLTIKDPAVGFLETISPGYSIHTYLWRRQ
Procedure: The effect of the novel compounds of the present invention on lysosomal GCase activity was assayed in situ using fibroblasts established from a normal subject. Cells seeded in 48-well plates were incubated with the indicated concentrations of compound for 16-24 hours. For the dose-response assays, cells were incubated with the in situ substrate 5-(pentafluorobenzoylamino)fluorescein di-β-D-glucopyranoside (PFBFDβGlu) for 1 hour and subsequently lysed to determine the extent of substrate hydrolysis in the presence of compound. […] Inhibition was determined as the ratio of activity in the presence of compound to that in the absence of compound. […] Cells were washed extensively and incubated in drug-free medium to allow net compound efflux from cells. Cells were then tested for lysosomal GCase activity at 2 hour intervals over a total period of 8 hours following compound removal. The increase in activity over time was fitted with a single exponential function to determine the compound's washout time.

[1] = GCase enhancement in brain and spleen after oral dosing over 2 weeks; format: in vivo, mice; settings: male, C57BL/6, mouse, brain homogenate as diluted in the GCase assay, po, brain, read-out: Compound concentration in GCase assay
Procedure: (§1) The ability of orally administered test compounds ((3R,4R,5S)-5-(difluoromethyl)piperidine-3,4-diol, (3R,4R,5S)-5-(1-fluoroethyl)piperidine-3,4-diol, (3R,4R,5S)-5-((R)-1-fluoropropyl)piperidine-3,4-diol hydrochloride, or (3R,4R,5S)-5-benzylpiperidine-3,4-diol) to elevate GCase levels was assessed in mice. For this purpose, 8-week old wild-type male mice (C57BL/6) were administered a single p.o. (gavage) dose of a compound of the present invention (i.e., (3R,4R,5S)-5-(difluoromethyl)piperidine-3,4-diol, (3R,4R,5S)-5-(1-fluoroethyl)piperidine-3,4-diol, (3R,4R,5S)-5-((R)-1-fluoropropyl)piperidine-3,4-diol hydrochloride, or (3R,4R,5S)-5-benzylpiperidine-3,4-diol). The dosing solutions were prepared in water. Compounds were administered over 2 weeks as follows: week 1, Mon-Fri (On), Sat-Sun (Off); week 2, Mon-Thu (On); necropsy on Friday. Thus, a total of 9 doses (dosing solutions prepared fresh every day) were given to each mouse, with a 24-hour washout between the last dose and necropsy.
(§2) Plasma was collected by spinning blood at 2700 g for 10 minutes at 4° C. Liver, spleen, lung, and brain tissues were removed, washed in cold PBS, blotted dry, flash frozen on dry ice, and stored at −80° C. until analysis. GCase levels were measured by homogenizing approximately 50 mg tissue in 500 μL McIlvane (MI) buffer (100 mM sodium citrate, 200 mM sodium phosphate dibasic, 0.25% sodium taurocholate, and 0.1% Triton X-100, pH 5.2) at pH 5.2 for 3-5 seconds on ice with a micro homogenizer. Homogenates were then incubated at room temperature without and with 2.5 mM conduritol-B-epoxide (CBE) for 30 min. Finally, 3.7 mM 4-methylumbeliferryl-β-glucoside (4-MUG) substrate was added and incubated at 37° C. for 60 min. […] Fluorescence was measured on a plate reader for 1 sec/well using 355 nm excitation and 460 nm emission. Total protein was determined in lysates using the MicroBCA kit according to the manufacturer's instructions. A 4-methylumbelliferone (4-MU) standard curve ranging from 1.0 nM to 50 μM was run in parallel for conversion of raw fluorescence data to absolute GCase activity (in the presence and absence of CBE) and expressed as nanomoles of 4-MU released per milligram of protein per hour (nmol/mg protein/hr). GCase levels and protein levels were calculated using Microsoft Excel (Redmond, Wash.) and GraphPad Prism version 4.02.

GCase = molecular target: T2, GCase (Mus musculus, UniProt P17439); assay: as above; format: in vivo, mice; set-up: from tissue; host or cells: brain and spleen of wild-type C57BL/6 mice; settings: for GCase enhancement in brain and spleen: mice, p.o.; for GCase increase (fold): 9 doses, 24-hour washout
T2 sequence (P17439 20-515): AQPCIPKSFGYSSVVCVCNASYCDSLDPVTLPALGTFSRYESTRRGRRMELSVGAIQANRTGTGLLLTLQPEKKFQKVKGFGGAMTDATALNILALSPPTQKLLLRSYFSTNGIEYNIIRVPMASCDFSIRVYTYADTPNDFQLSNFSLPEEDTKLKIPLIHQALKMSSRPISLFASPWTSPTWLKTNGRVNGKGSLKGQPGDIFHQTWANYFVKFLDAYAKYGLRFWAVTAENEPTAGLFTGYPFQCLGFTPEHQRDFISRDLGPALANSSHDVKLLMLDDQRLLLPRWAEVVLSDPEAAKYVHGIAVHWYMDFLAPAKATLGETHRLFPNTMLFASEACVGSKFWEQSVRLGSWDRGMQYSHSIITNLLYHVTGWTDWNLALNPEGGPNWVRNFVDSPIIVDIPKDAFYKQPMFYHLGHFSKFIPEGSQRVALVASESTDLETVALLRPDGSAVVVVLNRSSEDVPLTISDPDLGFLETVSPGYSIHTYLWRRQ
Procedure: as §1, §2

[2] = brain, 10 mg/kg FBE p.o., (1) BLQ <[…], (2) BLQ <2.2 nmol/kg
[3] = spleen, 10 mg/kg FBE p.o., (1) BLQ <6.8 nmol/kg, (2) BLQ <7.9 nmol/kg
[4] = spleen, 10 mg/kg FBE p.o., in µM
[5] = spleen, 100 mg/kg FBE p.o., in µM

| Compound | in situ washout from the lysosomal compartment compared to IFG-tartrate (lysosomal GCase) | inhibition of GCase activity (lysosomal GCase) | in situ washout (lysosomal GCase) | concentration at 24 h ([1]; 10 mg/kg, 10 mg/kg FBE p.o.) | concentration at 24 h ([1]; 100 mg/kg, 100 mg/kg FBE p.o.) | Compound concentration in tissue 2.2 nmol/kg (GCase; [2]) | Compound concentration in tissue 2.2 nmol/kg (GCase; brain, 100 mg/kg FBE p.o.) | GCase enhancement in brain and spleen (GCase) | Compound concentration in tissue (GCase; [3]) | Compound concentration in GCase assay (GCase; [4]) | Compound concentration in tissue (GCase; spleen, 100 mg/kg FBE p.o.) | Compound concentration in GCase assay (GCase; [5]) | GCase increase (fold) (GCase; brain, 10 mg/kg FBE p.o.) | Compound concentration in GCase assay (GCase; spleen, 10 mg/kg FBE p.o.) | Compound concentration in GCase assay (μM) (GCase; brain, 10 mg/kg FBE p.o.) | GCase increase (fold) (GCase; brain, 100 mg/kg FBE p.o.) | GCase increase (fold) (GCase; spleen, 10 mg/kg FBE p.o.) | GCase increase (fold) (GCase; spleen, 100 mg/kg FBE p.o.) |
| --- | --- | --- | --- | --- | --- | --- | --- | --- | --- | --- | --- | --- | --- | --- | --- | --- | --- | --- |
| O[C@H]1[C@H](O)CNC[C@@H]1C(F)F [Compound 6, (3R,4R,5S)-5-(Difluoromethyl)piperdine 3,4-diol Hydrochloride] | considerably faster than reference compound IFG-tartrate | inhibited GCase activity | 2.1 ± 0.30 h | 0.2 nM | 1 nM | 55 nmol/kg | 301 nmol/kg | significant GCase enhancement in brain and spleen | 100 nmol/kg | 0.0003 | 435 nmol/kg | 0.0015 | – | – | – | – | – | – |
| CC(F)[C@H]1CNC[C@@H](O)[C@@H]1O (single isomer, unassigned) | considerably faster than reference compound IFG-tartrate | inhibited GCase activity | – | 0.2 nM | – | – | – | significant GCase enhancement in brain and spleen | – | – | – | – | 1.5 fold | BLQ | – | – | – | – |
| CC[C@@H](F)[C@H]1CNC[C@@H](O)[C@@H]1O.Cl [(3R,4R,5S)-5-((R)-1-fluoropropyl)-piperidine-3,4-diol hydrochloride] | – | inhibited GCase activity | – | – | 0.1 nM | BLQ(2) | 38 nmol/kg | – | 21 nmol/kg | 0.0001 | 60 nmol/kg | 0.0002 | 0.9 fold | – | BLQ | 1.1 fold | 0.7 fold | 0.7 fold |
| O[C@@H]1[C@@H](Cc2ccccc2)CNC[C@H]1O [(3R,4R,5S)-5-benzyl-piperidine-3,4-diol] | considerably faster than reference compound IFG-tartrate | inhibited GCase activity | 1.2 ± 0.13 h | – | – | – | – | significant GCase enhancement in brain and spleen | – | – | – | – | 1.2 fold | – | – | 1.4 fold | 1.0 fold | 1.2 fold |

Reference: patent publication US10035766B2, “Compositions for preventing and/or treating lysosomal storage disorders” (Amicus Therapeutics, Inc., priority 2009, dated 2018)
